# Test results reported in paper PMC7979765, “trans-Translation inhibitors bind to a novel site on the ribosome and clear Neisseria gonorrhoeae in vivo” (Nature Communications, 2021).
# Read-outs that look alike come from different tables or passages of the source.
# Experiment: Pharmacokinetic analyses in mice (PO suspension, IV, SC)
# Format: in vivo, mouse
# Conditions: in vivo
# Method: Female CD-1 mice as above were fasted for 2 h prior, and 4 h after dosing. […] […], 3 mice from each group were euthanized by CO2 inhalation, blood was collected by cardiac puncture into K2EDTA collection tubes, and protein was precipitated and analysed by LC/MS-MS for plasma concentrations of MBX-4132. Data were analysed using WinNonLin.
# […] At 0.083, 0.5, 1, 4, 8 and 24 h post dose, blood was collected from 3 mice/group by tail vein or facial bleed into K2EDTA collection tubes, and protein was precipitated and analysed by LC/MS-MS for plasma concentrations of MBX-4132. Sampling was performed serially, with each mouse contributing sample at all time points. Data were analysed using WinNonLin.
# [1] = female, CD-1, mouse, sc, 10 mg/kg, SC (10 mg/kg), mean of 3 animals, read-out: MBX 4132 Concentrations in Mouse Plasma, Mean
# [2] = female, CD-1, mouse, sc, 10 mg/kg, SC (10 mg/kg), individual animals, read-out: MBX 4132 Concentrations in Mouse Plasma
# [3] = female, CD-1, mouse, sc, 25 mg/kg, SC (25 mg/kg), individual animals, read-out: MBX 4132 Concentrations in Mouse Plasma
# [4] = female, CD-1, mouse, sc, 25 mg/kg, SC (25 mg/kg), mean of 3 animals, read-out: MBX 4132 Concentrations in Mouse Plasma, Mean
# [5] = mouse, iv, 10 mg/kg, IV (10 mg/kg), individual animals, read-out: MBX 4132 Concentrations in Mouse Plasma
# [6] = mouse, iv, 10 mg/kg, IV (10 mg/kg), mean of 3 animals, read-out: MBX 4132 Concentrations in Mouse Plasma, Mean
# [7] = mouse, po, 10 mg/kg, PO (10 mg/kg), mean of 3 animals, read-out: MBX 4132 Concentrations in Mouse Plasma, Mean
# [8] = mouse, po, 10 mg/kg, PO (10 mg/kg), individual animals, read-out: MBX 4132 Concentrations in Mouse Plasma
compound,measurement,setting,value
O=C(Nc1nnc(-c2ccc(F)cc2)o1)N1CCc2ccccc2C1 [MBX 4132],concentration at 8 h,"female, CD-1, mouse, po, 10 mg/kg, PO (10 mg/kg susp.), mean of 3 animals, read-out: MBX 4132 Concentrations in Mouse Plasma, Mean",9920 ng/mL
same,concentration at 24 h,"female, CD-1, mouse, po, 10 mg/kg, PO (10 mg/kg susp.), individual animals, read-out: MBX 4132 Concentrations in Mouse Plasma",< 62.5 ng/mL
same,concentration at 0.083 h,"female, CD-1, mouse, po, 10 mg/kg, PO (10 mg/kg), mean of 3 animals, read-out: MBX 4132 Concentrations in Mouse Plasma, Mean",1260 ng/mL
same,concentration at 0.083 h,[1],786 ng/mL
same,concentration at 0.5 h,[2],3430 ng/mL
same,concentration at 0.5 h,[1],3780 ng/mL
same,concentration at 1 h,[2],3480 ng/mL
same,concentration at 1 h,[1],3350 ng/mL
same,concentration at 4 h,[2],3280 ng/mL
same,concentration at 4 h,[1],2850 ng/mL
same,concentration at 8 h,[2],2000 ng/mL
same,concentration at 8 h,[1],2430 ng/mL
same,concentration at 24 h,[2],599 ng/mL
same,concentration at 24 h,[1],608 ng/mL
same,concentration at 0.083 h,[3],1170 ng/mL
same,concentration at 0.083 h,[4],1510 ng/mL
same,concentration at 0.5 h,[4],5010 ng/mL
same,concentration at 1 h,[3],3020 ng/mL
same,concentration at 1 h,[4],4580 ng/mL
same,concentration at 4 h,[3],2380 ng/mL
same,concentration at 4 h,[4],3010 ng/mL
same,concentration at 8 h,[3],3420 ng/mL
same,concentration at 8 h,[4],4040 ng/mL
same,concentration at 24 h,[3],1540 ng/mL
same,concentration at 24 h,[4],1800 ng/mL
same,concentration at 0.083 h,[5],74600 ng/mL
same,concentration at 0.083 h,[6],66300 ng/mL
same,concentration at 0.5 h,[5],30600 ng/mL
same,concentration at 0.5 h,[6],32900 ng/mL
same,concentration at 1 h,[5],21000 ng/mL
same,concentration at 1 h,[6],21400 ng/mL
same,concentration at 4 h,[5],7790 ng/mL
same,concentration at 4 h,[6],7590 ng/mL
same,concentration at 8 h,[5],3920 ng/mL
same,concentration at 8 h,[6],3730 ng/mL
same,concentration at 0.5 h,[7],1360 ng/mL
same,concentration at 1 h,[8],1090 ng/mL
same,concentration at 1 h,[7],1440 ng/mL
same,concentration at 4 h,[8],1680 ng/mL
same,concentration at 4 h,[7],2170 ng/mL
same,concentration at 8 h,[8],4350 ng/mL
same,concentration at 8 h,[7],5110 ng/mL
same,concentration at 24 h,[7],58 ng/mL
